{"source": "patent US11628172B2", "about": "“Methods of treating chronic lymphocytic leukemia using 2-(2,6-dioxopiperidin-3-yl)-4-((2-fluoro-4-((3-morpholinoazetidin-1-yl)methyl)benzyl)amino)isoindoline-1,3-dione” (Celgene Corporation, priority 2019, dated 2023)", "key": {"I83-E95 CLL cell line": {"test_system": "I83-E95 CLL cell line", "experiment": "Cell proliferation and viability assay (384-well flow cytometry, Annexin V/DRAQ7), I83-E95", "format": "cell-based", "settings": "120 hours", "procedure": "(§1) The following are examples of cell-based assays that can be used to determine the anti-proliferative activity and apoptotic effect of compounds described herein using exemplary CLL cell lines (Table 3). The in vitro growth inhibitory activity of Compound 1 described herein was evaluated using a 384-well flow cytometry assay.\n(§2) The cell lines were plated under the conditions shown in Table 3 in 384-well flat bottom plates and incubated with increasing concentrations of compound ranging from 0.00015 to 10 μM or dimethyl sulfoxide (DMSO) control. The final concentration of DMSO was 0.1% (v/v). Following the addition of Compound 1 or DMSO and incubation for 120 hours, cell number and cell death were analyzed by flow cytometry (Attune®, Thermo Fisher) using Annexin V and the live-cell impermeant DNA dye, DRAQ7. […]\n(§3) Flow cytometry data analysis was then performed using the Flow Jo_v10 software to determine the number of viable cells (Annexin V and DRAQ7 double negative staining cells) and percentage of apoptotic cells (Annexin V positive cells) for each condition. […] The IC50 (50% inhibitory concentration) and Emax (maximum efficacy achieved) values were then calculated by performing nonlinear regression curve fitting using log (inhibitor) vs. normalized response—variable slope analysis on GraphPad Prism 7.03. […]"}, "CII CLL cell line": {"test_system": "CII CLL cell line", "experiment": "Cell proliferation and viability assay (384-well flow cytometry, Annexin V/DRAQ7), CII", "format": "cell-based", "settings": "120 hours", "procedure": "as §1, §2, §3"}, "[1]": {"test_system": "primary CLL cells from patient-derived blood (CD5+CD19+ tumor cells)", "experiment": "Compound 1 in combination with obinutuzumab in B-cell CLL patient cells (ex vivo co-culture, flow cytometry, Caspase3)", "format": "cell-based, human", "settings": "single agent (Cpd1 DRC with DMSO, or obinutuzumab alone), 144 h, apoptosis (Caspase 3), DMSO baseline subtracted", "procedure": "Obinutuzumab (GA101) is a humanized, glycoengineered type 2 antibody targeted against CD20. […] The effect of treatment with Compound 1 in combination with obinutuzumab on the proliferation and survival of CLL B cells was assessed utilizing an ex vivo model where primary CLL cells from patient-derived blood were stimulated to proliferate with 10% fetal bovine serum (FBS), 5 ng/mL recombinant human interleukine-4 (rh IL-4), 10 ng/mL recombinant human interleukine-10 (rh IL-10) and co-cultured with fibroblast expressing surface CD154 (CD40L) in a 96 well plate format.\nPeripheral blood mononuclear cells (PBMCs) from CLL patients (Table 7) containing 52%-86% of CD5^+CD19^+ tumor cells were cultured at a density of 0.06-0.1×10^6 cells/well on a monolayer of CD154-expressing fibroblasts at a density of 0.09×10^6 cells/well in 96-well plates in RPMI 1640 medium supplemented with 10% FBS, 5 ng/mL rh IL-4 and 10 ng/mL rh IL-10. The cells were treated with vehicle control (0.1% DMSO) or increasing concentrations of Compound 1 ranging from 0.0001 to 1 μM and GA101 at concentrations ranging from 8 ng/mL to 5 ug/mL across all the different concentrations of Compound 1. After 144 h of treatment with both the agents, flow cytometric analysis was used to determine the number of tumor cells that were viable or apoptotic.\nThe tumor cell count was assessed by staining the patient PBMCs in each condition with tumor cell surface markers CD5 & CD19 along with Live/Dead fixable dye to exclude the dead cells and followed by intracellular staining for Caspase3 antibody to identify the apoptotic cells and was measured by flow cytometry (Attune NxT, Thermo Fisher). The live tumor cell count for each condition was calculated by normalizing to the precision count beads added to each sample.\nThe live tumor cell count was then normalized to the DMSO control (considered as 100% viable) to calculate the percentage of viable cells remaining after treatment. The normalized percentage of tumor cells was then represented as a heat map using Graph Pad Prism 8.0.0 to indicate the degree of tumor toxicity for each of the combinations (FIG. 1). Based on the data shown in FIG. 1, synergy/additivity calculations were performed using the HSA and Bliss Independence Model.\nFor apoptosis analysis, the percentage of apoptosis combining both “early” (Caspase 3 positive and Live-Dead fixable dye negative) and “late” apoptosis (Caspase 3 and Live-Dead fixable dye positive) cell gates subtracting the baseline DMSO value was graphed using GraphPad Prism 8.0.0.0. The Ymax (maximal percentage of apoptosis achieved) values from apoptosis curves were calculated by performing a nonlinear regression curve fitting using log(agonist) vs. normalized response—Variable slope analysis and identifying the maximum value on GraphPad Prism 8.0.0 (Table 8)."}}, "data": [{"smiles": "O=C1CC[C@H](N2C(=O)c3cccc(NCc4ccc(CN5CC(N6CCOCC6)C5)cc4F)c3C2=O)C(=O)N1", "note": "[Compound 1, (S)-2-(2,6-dioxopiperidin-3-yl)-4-((2-fluoro-4-((3-morpholinoazetidin-1-yl)methyl)benzyl)amino)isoindoline-1,3-dione]", "values": [{"measurement": "% Viable Cells Emax (percentage of tumor cells remaining)", "setting": "I83-E95 CLL cell line", "result": 21.6, "unit": "%"}, {"measurement": "% Viable Cells Emax (percentage of tumor cells remaining)", "setting": "CII CLL cell line", "result": 78.23, "unit": "%"}, {"measurement": "Ymax of Pt 11 (%)", "setting": "[1]; Pt 11", "result": 18.81, "unit": "%"}, {"measurement": "Ymax of Pt 12 (%)", "setting": "[1]; Pt 12", "result": 19.11, "unit": "%"}, {"measurement": "Ymax of Pt 13 (%)", "setting": "[1]; Pt 13", "result": 29.40, "unit": "%"}, {"measurement": "Ymax of Pt 14 (%)", "setting": "[1]; Pt 14", "result": 24.11, "unit": "%"}]}]}
